These results are taken from patent US20160122320A1, “USEFUL COMBINATIONS OF MONOBACTAM ANTIBIOTICS WITH BETA-LACTAMASE INHIBITORS” (Basilea Pharmaceutica AG, priority 2005, published 2016).

Assay in all cases: MIC, NCCLS broth microdilution
Holding throughout (format): cell-based
(In broth dilution the organism is exposed to a series of concentrations in liquid medium.)

For one test, the system named is Acinetobacter sp. J2. The note with it: Acinetobacter sp. J2; MIC of antibiotic compound 1 with the labelled bridged monobactam of formula II and clavulanate, 4 mg/L each.
Test [1] deals with Pseudomonas aeruginosa MK1184. The note with it: MIC of antibiotic compound 1 with the labelled bridged monobactam of formula II and clavulanate, 4 mg/L each.
For test [2], the system named is Stenotrophomonas malthophilia 1AC736. The note with it: Stenotrophomonas malthophilia 1AC736; MIC of antibiotic compound 1 with the labelled bridged monobactam of formula II and clavulanate, 4 mg/L each.
Test [3] concerns Pseudomonas aeruginosa 1973E. The note with it: MIC of antibiotic compound 1 with the labelled bridged monobactam of formula II and clavulanate, 4 mg/L each. In short, it runs like this: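 Growth inhibition read by eye after overnight incubation (30° C. or 37° C.) defines the MIC, using NCCLS M7-A5 broth microdilution with ≤1% DMSO. When combinations were tested, only the formula I compound was titrated and each partner was fixed at 4 μg/mL.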

Another test relates to Serratia marcescens S6. The note with it: MIC of antibiotic compound 1 with the labelled bridged monobactam of formula II and clavulanate, 4 mg/L each.
In a further test the test system is Enterobacter cloacae P99. The note with it: MIC of antibiotic compound 1 with the labelled bridged monobactam of formula II and clavulanate, 4 mg/L each.
In test [4] the test system is Klebsiella pneumoniae CF104. The note with it: MIC of antibiotic compound 1 with the labelled bridged monobactam of formula II and clavulanate, 4 mg/L each.

Where a name gives a salt, the structure may show the parent alone.

Experimental for Enterobacter cloacae P99: Antimicrobial activity of the compounds and of their combinations was determined against a selection of organisms according to the standard procedures described by the National Committee for Clinical Laboratory Standards (National Committee for Clinical Laboratory. Standards (2000). Methods for Dilution Antimicrobial Susceptibility Tests for Bacteria That Grow Aerobically-Fifth Edition: Approved Standard M7-A5. NCCLS, Wayne, Pa., USA).
In all cases the final concentration of DMSO incubated with the bacteria is less than or equal to 1%. […] Plates were incubated overnight at an appropriate temperature (30° C. or 37° C.) and optical densities assessed by eye. The MIC value is defined as the lowest compound concentration completely inhibiting visible growth of the test organism. When combinations between compounds of formula I with compounds of formula II and are evaluated the compounds of formula I are tested in dilution series as described above while the compounds of formula II and III-XIII were present in all wells at a constant concentration of 4 μg/mL each.

Turning to `Cc1nnc(SCC(=O)N2CC[C@@H]3[C@H]2C(=O)N3S(=O)(=O)[O-])s1.[Na+]` [Compound 202, Sodium(1S,5R)-2-[2-(1-methyl(1,3,4-thiadiazol-2-ylthio))acetyl]-7-oxo-2,6-diazabicyclo[3.2.0]heptane-6-sulfonate], the “MIC of antibiotic at fixed inhibitor concentration (4 mg/L)” value in the test with Acinetobacter sp. J2 came out at 4 µg/mL; in test [1], 8 µg/mL; in test [2], 0.125 µg/mL; in test [3], 4 µg/mL; in the test with Serratia marcescens S6, 0.5 µg/mL; in the test with Enterobacter cloacae P99 it was 16 µg/mL. Also, in test [4], the “MIC of antibiotic at fixed inhibitor concentration (4 mg/L)” value was 2 µg/mL.

With `CN(C)n1ccc(SCC(=O)N2CC[C@@H]3[C@H]2C(=O)N3S(=O)(=O)O)nc1=O` [Compound 203, (1S,5R)-2-{2-[1-(dimethylamino)-2-oxohydropyrimidin-4-ylthio]acetyl}-7-oxo-2,6-diazabicyclo[3.2.0]heptane-6-sulfonic acid], the “MIC of antibiotic at fixed inhibitor concentration (4 mg/L)” value was 2 µg/mL in the test with Acinetobacter sp. J2; 32 µg/mL in test [1]; 8 µg/mL in test [2]; 4 µg/mL in test [3]; 0.25 µg/mL in the test on Serratia marcescens S6; 32 µg/mL in the test on Enterobacter cloacae P99. For the same compound, the “MIC of antibiotic at fixed inhibitor concentration (4 mg/L)” value in test [4] was found to be 1 µg/mL.

Consider `O=C(C[n+]1ccccc1)Nc1ccc(SCC(=O)N2CC[C@@H]3[C@H]2C(=O)N3S(=O)(=O)[O-])cc1` [Compound 204, (1S,5R)-7-oxo-2-{2-[4-(2-pyridiniumacetylamino)phenylthio]acetyl}-2,6-diazabicyclo[3.2.0]heptane-6-sulfonate, inner salt], for which the “MIC of antibiotic at fixed inhibitor concentration (4 mg/L)” value in the test with Acinetobacter sp. J2 was found to be 2 µg/mL; in test [1] it was 32 µg/mL; in test [2], 8 µg/mL; in test [3] it was 4 µg/mL; in the test with Serratia marcescens S6 it was 0.25 µg/mL; in the test with Enterobacter cloacae P99, 8 µg/mL. Moreover, in test [4], the “MIC of antibiotic at fixed inhibitor concentration (4 mg/L)” value was determined as 2 µg/mL.

As to `Cn1nnnc1SCC(=O)N1CC[C@@H]2[C@H]1C(=O)N2S(=O)(=O)[O-].[Na+]` [Compound 206], the “MIC of antibiotic at fixed inhibitor concentration (4 mg/L)” value with Acinetobacter sp. J2 is 4 µg/mL; in test [1], over 32 µg/mL; in test [2], 0.125 µg/mL; in test [3], 4 µg/mL; with Serratia marcescens S6 it was 4 µg/mL; in the test on Enterobacter cloacae P99 it was 8 µg/mL. The “MIC of antibiotic at fixed inhibitor concentration (4 mg/L)” value in test [4] stood at 0.25 µg/mL.

With `O=C(Nc1ccccc1)N1CC[C@@H]2[C@H]1C(=O)N2S(=O)(=O)[O-].[Na+]` [Compound 301], the “MIC of antibiotic at fixed inhibitor concentration (4 mg/L)” value was 8 µg/mL in the test with Acinetobacter sp. J2; over 32 µg/mL in test [1]; 0.125 µg/mL in test [2]; 4 µg/mL in test [3]; 0.25 µg/mL in the test on Serratia marcescens S6; 16 µg/mL in the test on Enterobacter cloacae P99. Also, in test [4], the “MIC of antibiotic at fixed inhibitor concentration (4 mg/L)” value came out at 1 µg/mL.

For `O=C(NCc1ccccc1)N1CC[C@@H]2[C@H]1C(=O)N2S(=O)(=O)[O-].[Na+]` [Compound 302], the “MIC of antibiotic at fixed inhibitor concentration (4 mg/L)” value in the test on Acinetobacter sp. J2 is over 32 µg/mL; in test [1] it was over 32 µg/mL; in test [2], 0.125 µg/mL; in test [3], 4 µg/mL; in the test with Serratia marcescens S6, 0.25 µg/mL; with Enterobacter cloacae P99, 32 µg/mL. Also, the “MIC of antibiotic at fixed inhibitor concentration (4 mg/L)” value in test [4] was 2 µg/mL.

`O=C(NCc1ccc(O)c(O)c1)N1CC[C@@H]2[C@H]1C(=O)N2S(=O)(=O)[O-].[Na+]` [Compound 303, Sodium(1S,5R)-2-{N-[(3,4-dihydroxyphenyl)methyl]carbamoyl}-7-oxo-2,6-diazabicyclo[3.2.0]heptane-6-sulfonate]: the “MIC of antibiotic at fixed inhibitor concentration (4 mg/L)” value in the test on Acinetobacter sp. J2 is over 32 µg/mL; in test [1] it was over 32 µg/mL; in test [2] it was 0.125 µg/mL; in test [3], 4 µg/mL; in the test with Serratia marcescens S6, 0.5 µg/mL; with Enterobacter cloacae P99 it was 32 µg/mL. In addition, the “MIC of antibiotic at fixed inhibitor concentration (4 mg/L)” value in test [4] stood at 2 µg/mL.

Consider `COc1ccc(NC(=O)N2CC[C@@H]3[C@H]2C(=O)N3S(=O)(=O)[O-])cc1.[Na+]` [Compound 304], for which the “MIC of antibiotic at fixed inhibitor concentration (4 mg/L)” value with Acinetobacter sp. J2 was over 32 µg/mL; in test [1], over 32 µg/mL; in test [2] it was 0.125 µg/mL; in test [3] it was 4 µg/mL; with Serratia marcescens S6 it was 0.25 µg/mL; with Enterobacter cloacae P99 it was 32 µg/mL. Further, the “MIC of antibiotic at fixed inhibitor concentration (4 mg/L)” value in test [4] came out at 1 µg/mL.

`NC(=O)c1cccc(NC(=O)N2CC[C@@H]3[C@H]2C(=O)N3S(=O)(=O)[O-])c1.[Na+]` [Compound 305]: the “MIC of antibiotic at fixed inhibitor concentration (4 mg/L)” value with Acinetobacter sp. J2 is over 32 µg/mL; in test [1] it was over 32 µg/mL; in test [2], 0.25 µg/mL; in test [3], 4 µg/mL; in the test with Serratia marcescens S6, 0.25 µg/mL; in the test with Enterobacter cloacae P99 it was 4 µg/mL. Also, the “MIC of antibiotic at fixed inhibitor concentration (4 mg/L)” value in test [4] is 4 µg/mL.

Regarding `O=C(Nc1ccc(O)c(O)c1)N1CC[C@@H]2[C@H]1C(=O)N2S(=O)(=O)[O-].[Na+]` [Compound 306, Sodium(1S,5R)-2-[N-(3,4-dihydroxyphenyl)carbamoyl]-7-oxo-2,6-diazabicyclo[3.2.0]heptane-6-sulfonate], the “MIC of antibiotic at fixed inhibitor concentration (4 mg/L)” value is over 32 µg/mL in the test on Acinetobacter sp. J2; over 32 µg/mL in test [1]; 0.25 µg/mL in test [2]; 4 µg/mL in test [3]; 0.5 µg/mL with Serratia marcescens S6; 32 µg/mL with Enterobacter cloacae P99. For the same compound, the “MIC of antibiotic at fixed inhibitor concentration (4 mg/L)” value in test [4] is 2 µg/mL.

As for `CC(=O)Nc1cccc(NC(=O)N2CC[C@@H]3[C@H]2C(=O)N3S(=O)(=O)[O-])c1.[Na+]` [Compound 307, Sodium(1S,5R)-2-{N-[3-(acetylamino)phenyl]carbamoyl}-7-oxo-2,6-diazabicyclo[3.2.0]heptane-6-sulfonate], the “MIC of antibiotic at fixed inhibitor concentration (4 mg/L)” value with Acinetobacter sp. J2 was over 32 µg/mL; in test [1], over 32 µg/mL; in test [2], 0.125 µg/mL; in test [3] it was 8 µg/mL; in the test on Serratia marcescens S6 it was 0.25 µg/mL; in the test on Enterobacter cloacae P99, 32 µg/mL. The “MIC of antibiotic at fixed inhibitor concentration (4 mg/L)” value in test [4] is 2 µg/mL.

On to `NS(=O)(=O)c1cccc(NC(=O)N2CC[C@@H]3[C@H]2C(=O)N3S(=O)(=O)[O-])c1.[Na+]` [Compound 308], for which the “MIC of antibiotic at fixed inhibitor concentration (4 mg/L)” value was over 32 µg/mL with Acinetobacter sp. J2; over 32 µg/mL in test [1]; 0.125 µg/mL in test [2]; 4 µg/mL in test [3]; 0.5 µg/mL with Serratia marcescens S6; 16 µg/mL with Enterobacter cloacae P99. For the same compound, the “MIC of antibiotic at fixed inhibitor concentration (4 mg/L)” value in test [4] was 0.5 µg/mL.

As to `CN(C)c1ccc(NC(=O)N2CC[C@@H]3[C@H]2C(=O)N3S(=O)(=O)[O-])cc1.[Na+]` [Compound 309, Sodium(1S,5R)-2-{N-[4-(dimethylamino)phenyl]carbamoyl}-7-oxo-2,6-diazabicyclo[3.2.0]heptane-6-sulfonate], the “MIC of antibiotic at fixed inhibitor concentration (4 mg/L)” value in the test with Acinetobacter sp. J2 was over 32 µg/mL; in test [1], over 32 µg/mL; in test [2] it was 0.125 µg/mL; in test [3], 4 µg/mL; with Serratia marcescens S6, 0.5 µg/mL; in the test with Enterobacter cloacae P99 it was 32 µg/mL. The “MIC of antibiotic at fixed inhibitor concentration (4 mg/L)” value in test [4] came to 2 µg/mL.
